Assay results: ChEMBL document CHEMBL1909046, “DrugMatrix in vitro pharmacology data”

What was measured:
Adenosine receptor A1 = biological target: T1, Adenosine receptor A1 (Homo sapiens, UniProt P30542); assay type: cell membranes, CHO, Membrane;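 further: radioligand binding assay at the adenosine A1 receptor, with DPCPX serving as the labelled ligand; in other assays of this panel Not Active means under 50% inhibition at 10 µM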
T1 sequence (P30542 whole entry): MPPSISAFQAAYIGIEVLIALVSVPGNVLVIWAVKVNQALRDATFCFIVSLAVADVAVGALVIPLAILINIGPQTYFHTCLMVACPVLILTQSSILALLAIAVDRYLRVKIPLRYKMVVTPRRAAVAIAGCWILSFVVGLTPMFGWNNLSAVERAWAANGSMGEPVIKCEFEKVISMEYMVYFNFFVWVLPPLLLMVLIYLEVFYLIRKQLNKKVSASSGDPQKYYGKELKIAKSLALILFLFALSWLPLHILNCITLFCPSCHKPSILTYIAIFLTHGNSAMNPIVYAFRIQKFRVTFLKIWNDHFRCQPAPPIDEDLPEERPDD

[1] = biological target: T2, Nitric oxide synthase, inducible (Mus musculus, UniProt P29477); parameters: species or system Escherichia coli;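 further: inhibition of iNOS enzyme activity measured with L-arginine as substrate; in other assays of this panel Not Active means under 50% inhibition at 10 µM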
T2 sequence (P29477 whole entry): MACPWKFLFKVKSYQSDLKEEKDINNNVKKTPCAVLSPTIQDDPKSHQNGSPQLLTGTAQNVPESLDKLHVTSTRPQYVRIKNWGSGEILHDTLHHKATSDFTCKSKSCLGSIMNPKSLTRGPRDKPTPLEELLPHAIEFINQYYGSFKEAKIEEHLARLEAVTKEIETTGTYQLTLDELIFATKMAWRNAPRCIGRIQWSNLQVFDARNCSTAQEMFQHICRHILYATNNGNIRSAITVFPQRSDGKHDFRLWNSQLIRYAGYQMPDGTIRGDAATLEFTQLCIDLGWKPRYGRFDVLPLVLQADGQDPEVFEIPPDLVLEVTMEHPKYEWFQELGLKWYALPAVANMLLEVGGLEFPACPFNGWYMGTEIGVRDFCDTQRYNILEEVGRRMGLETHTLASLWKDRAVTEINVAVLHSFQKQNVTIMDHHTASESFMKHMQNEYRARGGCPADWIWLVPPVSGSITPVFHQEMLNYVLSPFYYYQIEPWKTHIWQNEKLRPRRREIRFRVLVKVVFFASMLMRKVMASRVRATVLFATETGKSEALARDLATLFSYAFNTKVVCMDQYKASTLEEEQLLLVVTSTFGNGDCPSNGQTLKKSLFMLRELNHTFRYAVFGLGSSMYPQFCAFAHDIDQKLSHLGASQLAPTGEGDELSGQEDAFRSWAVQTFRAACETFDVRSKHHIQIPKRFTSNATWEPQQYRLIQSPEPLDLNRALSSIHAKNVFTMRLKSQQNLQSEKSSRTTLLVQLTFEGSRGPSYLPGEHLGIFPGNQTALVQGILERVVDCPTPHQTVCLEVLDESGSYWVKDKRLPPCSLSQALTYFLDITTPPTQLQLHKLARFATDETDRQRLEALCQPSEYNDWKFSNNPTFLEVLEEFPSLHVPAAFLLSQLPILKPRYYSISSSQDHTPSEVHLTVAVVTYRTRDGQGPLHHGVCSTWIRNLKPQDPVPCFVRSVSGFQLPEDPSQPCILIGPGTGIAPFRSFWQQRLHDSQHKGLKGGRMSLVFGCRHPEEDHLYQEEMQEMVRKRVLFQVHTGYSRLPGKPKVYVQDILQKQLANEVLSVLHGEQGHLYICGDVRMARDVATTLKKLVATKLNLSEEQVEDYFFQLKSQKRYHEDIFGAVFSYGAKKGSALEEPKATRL

Cannabinoid receptor 1 = Cannabinoid receptor 1 (Homo sapiens, UniProt P21554); assay type: cell membranes, Chem-1, Membrane; further: in other assays of this panel Not Active means under 50% inhibition at 10 µM
Sequence of Cannabinoid receptor 1 (P21554 whole entry): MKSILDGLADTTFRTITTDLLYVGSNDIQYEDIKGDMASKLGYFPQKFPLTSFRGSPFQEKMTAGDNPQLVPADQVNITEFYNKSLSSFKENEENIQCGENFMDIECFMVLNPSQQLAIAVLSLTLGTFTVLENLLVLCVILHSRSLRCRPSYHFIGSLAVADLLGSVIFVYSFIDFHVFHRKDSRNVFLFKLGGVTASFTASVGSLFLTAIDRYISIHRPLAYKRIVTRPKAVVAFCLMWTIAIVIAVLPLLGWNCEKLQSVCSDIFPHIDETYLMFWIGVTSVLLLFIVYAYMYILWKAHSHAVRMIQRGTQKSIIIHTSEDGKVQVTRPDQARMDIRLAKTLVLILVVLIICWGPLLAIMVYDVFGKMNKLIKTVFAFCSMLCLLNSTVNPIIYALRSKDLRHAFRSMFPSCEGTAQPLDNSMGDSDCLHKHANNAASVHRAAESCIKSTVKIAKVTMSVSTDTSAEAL

B2 bradykinin receptor = biological target: T3, B2 bradykinin receptor (Homo sapiens, UniProt P30411); assay type: cell membranes, Membrane; conditions: chem-1; further: in other assays of this panel Not Active means under 50% inhibition at 10 µM
T3 sequence (P30411 whole entry): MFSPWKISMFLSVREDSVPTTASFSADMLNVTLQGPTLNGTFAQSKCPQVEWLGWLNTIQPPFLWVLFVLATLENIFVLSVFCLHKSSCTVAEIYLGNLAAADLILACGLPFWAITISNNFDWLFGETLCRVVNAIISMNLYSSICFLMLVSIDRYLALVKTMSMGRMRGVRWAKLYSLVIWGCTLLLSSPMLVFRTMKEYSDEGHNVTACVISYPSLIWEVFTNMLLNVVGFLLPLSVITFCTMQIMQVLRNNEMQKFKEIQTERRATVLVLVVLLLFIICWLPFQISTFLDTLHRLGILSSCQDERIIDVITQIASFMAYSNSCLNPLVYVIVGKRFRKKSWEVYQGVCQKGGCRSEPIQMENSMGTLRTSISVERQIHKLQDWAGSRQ

Cytochrome P450 2A6 = biological target: T4, Cytochrome P450 2A6 (Homo sapiens, UniProt P11509); conditions: bti-tn-5b1-4; further: in other assays of this panel Not Active means under 50% inhibition at 10 µM
T4 sequence (P11509 whole entry): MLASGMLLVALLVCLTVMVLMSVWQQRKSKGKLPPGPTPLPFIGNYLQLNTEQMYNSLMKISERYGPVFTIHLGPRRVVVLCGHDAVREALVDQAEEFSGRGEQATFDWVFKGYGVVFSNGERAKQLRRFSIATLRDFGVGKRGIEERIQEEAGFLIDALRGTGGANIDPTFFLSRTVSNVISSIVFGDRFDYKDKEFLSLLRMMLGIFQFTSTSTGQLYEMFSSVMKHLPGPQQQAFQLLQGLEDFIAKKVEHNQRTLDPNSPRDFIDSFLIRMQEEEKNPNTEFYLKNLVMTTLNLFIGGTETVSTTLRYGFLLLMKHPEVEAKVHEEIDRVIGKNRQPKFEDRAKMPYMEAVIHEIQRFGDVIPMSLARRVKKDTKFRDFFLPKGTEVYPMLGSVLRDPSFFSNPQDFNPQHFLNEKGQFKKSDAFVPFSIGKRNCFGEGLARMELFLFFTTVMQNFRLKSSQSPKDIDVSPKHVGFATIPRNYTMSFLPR

[2] = biological target: cGMP-specific 3',5'-cyclic phosphodiesterase (Homo sapiens, UniProt O76074); assay: DRUGMATRIX: Phosphodiesterase PDE5 enzyme inhibition (substrate: [3H]cGMP + cGMP); assay type: tissue-based, Platelet; conditions: Not Active = under 50% inhibition at 10 µM
Caspase-1 = biological target: T5, Caspase-1 (Homo sapiens, UniProt P29466); parameters: species or system Escherichia coli
T5 sequence (P29466 whole entry): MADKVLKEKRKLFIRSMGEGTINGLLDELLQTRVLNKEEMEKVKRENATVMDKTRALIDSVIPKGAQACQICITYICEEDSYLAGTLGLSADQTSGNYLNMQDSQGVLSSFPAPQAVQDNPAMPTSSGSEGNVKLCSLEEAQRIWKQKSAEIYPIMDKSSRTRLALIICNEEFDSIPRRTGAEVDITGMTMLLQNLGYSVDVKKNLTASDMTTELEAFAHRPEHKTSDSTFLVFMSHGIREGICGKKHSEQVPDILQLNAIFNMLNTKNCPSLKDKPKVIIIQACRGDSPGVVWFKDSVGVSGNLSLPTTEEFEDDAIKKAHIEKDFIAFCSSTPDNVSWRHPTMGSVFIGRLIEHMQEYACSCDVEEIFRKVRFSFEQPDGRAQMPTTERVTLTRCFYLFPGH

Structure (SMILES) | IC50 (Adenosine receptor A1; cho) | IC50 [1] | IC50 (Cannabinoid receptor 1; chem-1) | IC50 (B2 bradykinin receptor) | IC50 (Cytochrome P450 2A6) | Ki (Cytochrome P450 2A6) | IC50 ([2]; platelet) | IC50 (Caspase-1) | IC50 (Cannabinoid receptor 1; read-out: IC50) [µM] | Ki (Cannabinoid receptor 1; read-out: Ki) [µM] | IC50 (Adenosine receptor A1; read-out: IC50) [µM] | Ki (Adenosine receptor A1; read-out: Ki) [µM] | IC50 ([2]; read-out: IC50) [µM]
CCCCC(=O)N(Cc1ccc(-c2ccccc2-c2nnn[nH]2)cc1)[C@H](C(=O)O)C(C)C | Not Active | Not Active | Not Active | Not Active | Not Active | Not Active | Not Active | Not Active | – | – | – | – | –
O=C(O)COc1ccc(C(=O)c2cccs2)c(Cl)c1Cl | Not Active | Not Active | Not Active | Not Active | Not Active | Not Active | Not Active | Not Active | – | – | – | – | –
CN1[C@@H]2CC[C@H]1C[C@@H](OC(c1ccccc1)c1ccccc1)C2 [BENZTROPINE] | Not Active | Not Active | Not Active | Not Active | Not Active | Not Active | Not Active | Not Active | – | – | – | – | –
C[C@@](Cc1ccc(O)c(O)c1)(NN)C(=O)O.O [CARBIDOPA] | Not Active | Not Active | Not Active | Not Active | Not Active | Not Active | Not Active | Not Active | – | – | – | – | –
CN1CCN(C2=Nc3cc(Cl)ccc3Nc3ccccc32)CC1 [CLOZAPINE] | Not Active | Not Active | Not Active | Not Active | Not Active | Not Active | Not Active | Not Active | – | – | – | – | –
CC(C)NC[C@@H](O)COc1cccc2ccccc12 [DEXPROPRANOLOL] | Not Active | Not Active | Not Active | Not Active | Not Active | Not Active | Not Active | Not Active | – | – | – | – | –
CC(C)NC[C@H](O)COc1cccc2ccccc12 [LEVOPROPRANOLOL] | Not Active | Not Active | Not Active | Not Active | Not Active | Not Active | Not Active | Not Active | – | – | – | – | –
O=C(O)CCCCC1CCSS1 (stereo not drawn) [LIPOIC ACID, ALPHA] | Not Active | Not Active | Not Active | Not Active | Not Active | Not Active | Not Active | Not Active | – | – | – | – | –
CN(C)C(=O)C(CCN1CCC(O)(c2ccc(Cl)cc2)CC1)(c1ccccc1)c1ccccc1 [LOPERAMIDE] | Not Active | Not Active | Not Active | Not Active | Not Active | Not Active | Not Active | Not Active | – | – | – | – | –
Clc1ccc(COC(Cn2ccnc2)c2ccc(Cl)cc2Cl)c(Cl)c1 (centres undefined) [MICONAZOLE] | – | Not Active | – | Not Active | Not Active | Not Active | Not Active | Not Active | 21 | 16.6 | – | – | –
Oc1ccc2c3c1O[C@H]1[C@@H](O)CC[C@@]4(O)[C@@H](C2)N(CC2CCC2)CC[C@]314 [NALBUPHINE] | Not Active | Not Active | Not Active | Not Active | – | – | Not Active | Not Active | – | – | – | – | –
C[C@]12C=CC(=O)C=C1CC[C@@H]1[C@@H]2C(=O)C[C@@]2(C)[C@H]1CC[C@]2(O)C(=O)CO [PREDNISONE] | Not Active | Not Active | Not Active | Not Active | – | – | Not Active | Not Active | – | – | – | – | –
OCCOCCN1CCN(C2=Nc3ccccc3Sc3ccccc32)CC1 [QUETIAPINE] | Not Active | Not Active | Not Active | Not Active | Not Active | Not Active | Not Active | Not Active | – | – | – | – | –
COC(=O)[C@H]1[C@H]2C[C@@H]3c4[nH]c5cc(OC)ccc5c4CCN3C[C@H]2C[C@@H](OC(=O)c2cc(OC)c(OC)c(OC)c2)[C@@H]1OC [RESERPINE] | Not Active | Not Active | Not Active | Not Active | Not Active | Not Active | Not Active | Not Active | – | – | – | – | –
O=C(O)c1ccccc1O [SALICYLIC ACID] | Not Active | Not Active | Not Active | Not Active | Not Active | Not Active | Not Active | Not Active | – | – | – | – | –
C[S+]([O-])c1ccc(-c2nc(-c3ccncc3)c(-c3ccc(F)cc3)[nH]2)cc1 (centres undefined) [SB-203580] | – | Not Active | Not Active | Not Active | Not Active | Not Active | – | Not Active | – | – | 2.95 | 1.72 | 11.5
CC1CCC(NC(=O)N(CCCl)N=O)CC1 (centres undefined) [SEMUSTINE] | Not Active | Not Active | Not Active | Not Active | Not Active | Not Active | Not Active | Not Active | – | – | – | – | –
O=C1C[C@@H]2OCC=C3CN4CC[C@]56c7ccccc7N1[C@H]5[C@H]2[C@H]3C[C@H]46 [STRYCHNINE] | Not Active | Not Active | Not Active | Not Active | Not Active | Not Active | Not Active | Not Active | – | – | – | – | –
C[N+](C)(C)CCOC(=O)CCC(=O)OCC[N+](C)(C)C.[Cl-].[Cl-] [SUCCINYLCHOLINE CHLORIDE] | Not Active | Not Active | Not Active | Not Active | Not Active | Not Active | Not Active | Not Active | – | – | – | – | –
